Inhibition and IC50 data for 13 molecules are collected here from patent US9771341B2, “Piperazine carbamates and methods of making and using same” (Abide Therapeutics, Inc., priority 2015, dated 2017).

SMILES strings stand for the structures.

Type in all cases: biochemical
One assay has as its target T1, MAGL (Mus musculus, UniProt O35678).
T1 construct: Proteomes (mouse brain membrane fraction or cell lysates); from tissue; host or cells: mouse brain membrane fraction (or unspecified cell lysates)
T1 sequence (O35678 1-303): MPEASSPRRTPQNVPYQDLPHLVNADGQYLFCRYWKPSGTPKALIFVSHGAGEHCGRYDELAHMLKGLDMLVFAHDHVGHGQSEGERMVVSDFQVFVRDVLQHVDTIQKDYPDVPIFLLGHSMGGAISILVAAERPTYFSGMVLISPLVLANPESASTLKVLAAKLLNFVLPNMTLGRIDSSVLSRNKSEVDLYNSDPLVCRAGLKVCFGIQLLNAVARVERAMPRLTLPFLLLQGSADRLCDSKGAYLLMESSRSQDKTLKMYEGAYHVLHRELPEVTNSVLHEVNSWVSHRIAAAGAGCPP
Briefly: In vitro competitive activity-based protein profiling (mouse), MAGL. The note with it: for inhibition at 1 µM: mouse proteome, in vitro, read-out: % Inhibition at 1 μM MAGL; for IC50: mouse brain membrane fraction or cell lysates, 30 min preincubation at 37° C, FP-Rh probe. The method, then: (§1) In Vitro Competitive Activity-Based Protein Profiling (Mouse).
(§2) Proteomes (mouse brain membrane fraction or cell lysates) (50 μL, 1.0 mg/mL total protein concentration) were preincubated with varying concentrations of inhibitors at 37° C. After 30 min, FP-Rh (1.0 μL, 50 μM in DMSO) was added and the mixture was incubated for another 30 min at 37° C. Reactions were quenched with SDS loading buffer (50 μL-4×) and run on SDS-PAGE.

In another assay the target is T2, FAAH (Mus musculus, UniProt O08914).
T2 construct: Proteomes (mouse brain membrane fraction or cell lysates); from tissue; host or cells: mouse brain membrane fraction (or unspecified cell lysates)
T2 sequence (O08914 1-579): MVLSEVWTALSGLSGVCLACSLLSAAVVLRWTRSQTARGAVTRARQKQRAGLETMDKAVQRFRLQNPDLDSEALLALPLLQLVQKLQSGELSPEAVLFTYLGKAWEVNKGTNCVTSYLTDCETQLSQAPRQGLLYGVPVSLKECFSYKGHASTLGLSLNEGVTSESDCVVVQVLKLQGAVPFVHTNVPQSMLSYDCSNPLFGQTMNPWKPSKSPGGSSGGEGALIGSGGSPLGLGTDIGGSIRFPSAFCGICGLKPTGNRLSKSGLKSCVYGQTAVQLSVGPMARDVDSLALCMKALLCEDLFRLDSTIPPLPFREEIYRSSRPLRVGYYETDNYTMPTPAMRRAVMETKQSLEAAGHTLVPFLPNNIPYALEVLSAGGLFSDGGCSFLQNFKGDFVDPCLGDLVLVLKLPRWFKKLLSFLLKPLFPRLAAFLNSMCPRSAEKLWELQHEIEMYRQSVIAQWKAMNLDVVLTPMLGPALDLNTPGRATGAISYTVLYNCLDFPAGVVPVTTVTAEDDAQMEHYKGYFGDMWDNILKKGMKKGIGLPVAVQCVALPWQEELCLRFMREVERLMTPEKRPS
Briefly: In vitro competitive activity-based protein profiling (mouse), FAAH. The note with it: for inhibition at 1 µM: mouse proteome, in vitro; for IC50: mouse brain membrane fraction or cell lysates, 30 min preincubation at 37° C, FP-Rh probe. The essentials: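 Mouse brain membrane fraction or cell lysates (1.0 mg/mL protein) preincubated with inhibitors 30 min at 37° C, then FP-Rh probe 30 min at 37° C. SDS-PAGE fluorescence band intensity gave FAAH activity.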

Another assay deals with T3, ABHD6 (Mus musculus, UniProt Q8R2Y0).
T3 construct: Proteomes (mouse brain membrane fraction or cell lysates); from tissue; host or cells: mouse brain membrane fraction (or unspecified cell lysates)
T3 sequence (Q8R2Y0 1-336): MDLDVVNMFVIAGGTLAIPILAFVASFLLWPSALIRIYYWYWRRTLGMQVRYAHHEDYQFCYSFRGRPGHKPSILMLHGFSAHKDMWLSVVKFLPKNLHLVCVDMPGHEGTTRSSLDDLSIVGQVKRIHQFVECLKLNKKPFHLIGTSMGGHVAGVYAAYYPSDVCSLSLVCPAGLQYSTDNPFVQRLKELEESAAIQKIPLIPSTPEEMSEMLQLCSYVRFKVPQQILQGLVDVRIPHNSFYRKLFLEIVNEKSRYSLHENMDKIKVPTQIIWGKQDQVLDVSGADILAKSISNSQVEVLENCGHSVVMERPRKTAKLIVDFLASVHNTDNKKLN
The experiment in a line: In vitro competitive activity-based protein profiling (mouse), ABHD6. The note with it: for inhibition at 1 µM: mouse proteome, in vitro, read-out: % Inhibition at 1 μM ABHD6; for IC50: mouse brain membrane fraction or cell lysates, 30 min preincubation at 37° C, FP-Rh probe. The method, then:
as §1, §2

Take `O=C(OC(C(F)(F)F)C(F)(F)F)N1CCN(Cc2ccc(C(F)(F)F)cc2N2CCC(CO)C2)CC1` (stereo not drawn) [Example 73, 1,1,1,3,3,3-hexafluoropropan-2-yl 4-(2-(3-(hydroxymethyl)pyrrolidin-1-yl)-4-(trifluoromethyl)benzyl)piperazine-1-carboxylate]: the inhibition at 1 µM on MAGL is more than 75%; on FAAH it was less than 25%; at ABHD6, more than 75%. The figures for the IC50 on MAGL, at FAAH and on ABHD6 were less than 100 nM, more than 1000 nM and 100 to 1000 nM, respectively.
On to `O=C(O)C(=O)c1cc(C(F)(F)F)ccc1CN1CCN(C(=O)OC(C(F)(F)F)C(F)(F)F)CC1` [Example 76, 2-(2-((4-(((1,1,1,3,3,3-hexafluoropropan-2-yl)oxy)carbonyl)piperazin-1-yl)methyl)-5-(trifluoromethyl)phenyl)-2-oxoacetic acid], for which the inhibition at 1 µM is more than 75% at MAGL, less than 25% on FAAH and more than 75% at ABHD6. The IC50 on MAGL was less than 100 nM; at FAAH, more than 1000 nM; at ABHD6 it was more than 1000 nM.
For `O=C(O)[C@@H]1CCCN1c1cc(CN2CCN(C(=O)OC(C(F)(F)F)C(F)(F)F)CC2)ccc1C(F)(F)F` [Example 77, (5-((4-(((1,1,1,3,3,3-hexafluoropropan-2-yl)oxy)carbonyl)piperazin-1-yl)methyl)-2-(trifluoromethyl)phenyl)proline], the inhibition at 1 µM was more than 75% on MAGL, less than 25% on FAAH and more than 75% on ABHD6. Further, the values for the IC50 at MAGL, at FAAH and at ABHD6 were 100 to 1000 nM, more than 1000 nM and more than 1000 nM, respectively.
Consider `CCOC(=O)C1CCCN1c1cc(CN2CCN(C(=O)OC(C(F)(F)F)C(F)(F)F)CC2)ccc1C(F)(F)F` (stereo not drawn) [Example 78, 1,1,1,3,3,3-hexafluoropropan-2-yl 4-(3-(2-(ethoxycarbonyl)pyrrolidin-1-yl)-4-(trifluoromethyl)benzyl)piperazine-1-carboxylate], for which the inhibition at 1 µM on MAGL is more than 75%; at FAAH it was less than 25%; on ABHD6, more than 75%. Besides, the IC50 on MAGL was less than 100 nM; at FAAH it was more than 1000 nM; on ABHD6, 100 to 1000 nM.
For `O=C(OC(C(F)(F)F)C(F)(F)F)N1CCN(Cc2ccc(C(F)(F)F)c(N3CCCC3CO)c2)CC1` (stereo not drawn) [Example 79, 1,1,1,3,3,3-hexafluoropropan-2-yl 4-(3-(2-(hydroxymethyl)pyrrolidin-1-yl)-4-(trifluoromethyl)benzyl)piperazine-1-carboxylate], the inhibition at 1 µM at MAGL was more than 75%; at FAAH, less than 25%; on ABHD6 it was more than 75%. Besides, the IC50 on MAGL is less than 100 nM; on FAAH it was more than 1000 nM; at ABHD6, less than 100 nM.
`O=C(O)C1CCN(c2cc(CN3CCN(C(=O)OC(C(F)(F)F)C(F)(F)F)CC3)ccc2C(F)(F)F)C1` (stereo not drawn) [Example 80, 1-(5-((4-(((1,1,1,3,3,3-hexafluoropropan-2-yl)oxy)carbonyl)piperazin-1-yl)methyl)-2-(trifluoromethyl)phenyl)pyrrolidine-3-carboxylic acid]: the inhibition at 1 µM is more than 75% at MAGL, less than 25% at FAAH and 25 to 75% on ABHD6. In addition, the IC50 is less than 100 nM at MAGL, more than 1000 nM at FAAH and 100 to 1000 nM at ABHD6.
Turning to `O=C(OC(C(F)(F)F)C(F)(F)F)N1CCN(Cc2ccc(C(F)(F)F)c(N3CCC(CO)C3)c2)CC1` (stereo not drawn) [Example 81, 1,1,1,3,3,3-hexafluoropropan-2-yl 4-(3-(3-(hydroxymethyl)pyrrolidin-1-yl)-4-(trifluoromethyl)benzyl)piperazine-1-carboxylate], the inhibition at 1 µM on MAGL was more than 75%; at FAAH, less than 25%; at ABHD6, more than 75%. For the same molecule, the IC50 on MAGL was 100 to 1000 nM; on FAAH it was more than 1000 nM; at ABHD6, 100 to 1000 nM.
Consider `O=C(OC(C(F)(F)F)C(F)(F)F)N1CCN(Cc2ccc(C(F)(F)F)c(N3CCC(CO)CC3)c2)CC1` [Example 82, 1,1,1,3,3,3-hexafluoropropan-2-yl 4-(3-(4-(hydroxymethyl)piperidin-1-yl)-4-(trifluoromethyl)benzyl)piperazine-1-carboxylate], for which the inhibition at 1 µM is more than 75% on MAGL, less than 25% on FAAH and more than 75% at ABHD6. The figures for the IC50 at MAGL, on FAAH and on ABHD6 were less than 100 nM, more than 1000 nM and 100 to 1000 nM, respectively.
Turning to `O=C(O)C1CN(c2cc(CN3CCN(C(=O)OC(C(F)(F)F)C(F)(F)F)CC3)ccc2C(F)(F)F)CCO1` (stereo not drawn) [Example 83, 4-(5-((4-(((1,1,1,3,3,3-hexafluoropropan-2-yl)oxy)carbonyl)piperazin-1-yl)methyl)-2-(trifluoromethyl)phenyl)morpholine-2-carboxylic acid], the figures for the inhibition at 1 µM at MAGL, at FAAH and at ABHD6 were more than 75%, less than 25% and less than 25%, respectively. For the same molecule, the IC50 at MAGL was less than 100 nM; on FAAH it was more than 1000 nM; on ABHD6, 100 to 1000 nM.
For `O=C(O)C(=O)c1cc(CN2CCN(C(=O)OC(C(F)(F)F)C(F)(F)F)CC2)ccc1C(F)(F)F` [Example 84, 2-(5-((4-(((1,1,1,3,3,3-hexafluoropropan-2-yl)oxy)carbonyl)piperazin-1-yl)methyl)-2-(trifluoromethyl)phenyl)-2-oxoacetic acid], the inhibition at 1 µM was more than 75% on MAGL, less than 25% at FAAH and more than 75% on ABHD6. Further, the IC50 at MAGL is less than 100 nM; on FAAH, more than 1000 nM; on ABHD6, less than 100 nM.
For the molecule `O=C(O)C1CCN(c2cc(CN3CCN(C(=O)OC(C(F)(F)F)C(F)(F)F)CC3)ccc2C(F)(F)F)CC1` [Example 85, 1-(5-((4-(((1,1,1,3,3,3-hexafluoropropan-2-yl)oxy)carbonyl)piperazin-1-yl)methyl)-2-(trifluoromethyl)phenyl)piperidine-4-carboxylic acid], the inhibition at 1 µM on MAGL was 25 to 75%; at FAAH it was less than 25%; at ABHD6, more than 75%. The IC50 at MAGL was 100 to 1000 nM; on FAAH, more than 1000 nM; at ABHD6, 100 to 1000 nM.
For the molecule `CCOC(=O)C1CCCN1c1cc(CN2CCN(C(=O)OC(C(F)(F)F)C(F)(F)F)CC2)cc(C(F)(F)F)c1` (stereo not drawn) [Example 87, 1,1,1,3,3,3-hexafluoropropan-2-yl 4-(3-(2-(ethoxycarbonyl)pyrrolidin-1-yl)-5-(trifluoromethyl)benzyl)piperazine-1-carboxylate], the inhibition at 1 µM was more than 75% on MAGL, less than 25% on FAAH and more than 75% on ABHD6. Also, the IC50 on MAGL is less than 100 nM; at FAAH, more than 1000 nM; at ABHD6, 100 to 1000 nM.
Consider `O=C(OC(C(F)(F)F)C(F)(F)F)N1CCN(Cc2cc(N3CCCC3CO)cc(C(F)(F)F)c2)CC1` (stereo not drawn) [Example 88, 1,1,1,3,3,3-hexafluoropropan-2-yl 4-(3-(2-(hydroxymethyl)pyrrolidin-1-yl)-5-(trifluoromethyl)benzyl)piperazine-1-carboxylate], for which the inhibition at 1 µM is more than 75% on MAGL, less than 25% on FAAH and 25 to 75% on ABHD6. Also, the IC50 on MAGL is 100 to 1000 nM; at FAAH it was more than 1000 nM; on ABHD6 it was 100 to 1000 nM.

For orientation: inhibition means the drop in the measured response relative to a control, in per cent. What is called IC50 is the concentration that gives 50% inhibition.
